Results: patent US7910559B2, “Decladinosyl-macrolides with anti-inflammatory activity” (GlaxoSmithKline istrazivacki centar Zagreb d.o.o., priority 2005, dated 2011)
Like-named read-outs stand apart in the source and are kept apart here.

Assays:
Format in all cases: cell-based
human TNF-α = test: Inhibition of TNF-α production by stimulated human peripheral blood leukocytes in vitro (ELISA); conditions: Homo sapiens, Leukocyte, PBL, read-out: Percentage of inhibition of TNF-α production; for inhibition at 10 µM: compound 10 μM; for inhibition at 50 µM: compound 50 μM
Method in brief: (§1)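 Human PBL from healthy donors preincubated 2 h at 37 °C with compound, then stimulated overnight with 2 μg/mL LPS, 1 μg/mL PMA or 120 μg/mL zymosan. Supernatant cytokines measured by sandwich ELISA. % inhibition is relative to stimulated, untreated cells.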

[1] = system: human peripheral blood mononuclear cells (PBMC); test: Human peripheral blood mononuclear cell proliferation in vitro ((3H)thymidine incorporation); conditions: Homo sapiens, PBMC, read-out: Percentage of inhibition of proliferation of stimulated PBMC; for inhibition at 10 µM: compound 10 μM; for inhibition at 50 µM: compound 50 μM
Description: Substances, used in in vitro experiments, were dissolved in dimethyl sulfoxide (DMSO) (Kemika, Croatia) at concentrations of 50 mM and 10 mM and were further diluted to the final concentrations of […] in 1 mL Dulbecco's modified Eagle medium (DMEM) supplemented with 1% heat inactivated fetal bovine serum (FBS), 1% glutamax, 50 U/ml penicillin, 50 μg/ml streptomycin and 2.5 μg/mL Fungizone (amphotericin B). Media and all media supplements were purchased from Gibco, Australia, except FBS that was from Sigma, USA.
Heparinized peripheral blood was obtained from healthy donors, and peripheral blood mononuclear cells (PBMC) were isolated by Histopaque 1077 (Sigma, USA) density centrifugation at 400 g for 30 minutes. Collected PBMC were centrifuged in plasma at 400 g/10 min, resuspended and washed in RPMI 1640 (Institute of Immunology, Croatia) by centrifugation.
Influence of substances at two different concentrations (50 μM and 10 μM) on proliferation of human peripheral blood mononuclear cells (PBMC) was assessed.
Heparinized peripheral blood was obtained from healthy donors, and PBMC were isolated by Histopaque 1077 (Sigma, USA) density centrifugation at 400 g for 30 minutes. 5×10^4 cells/well were cultured for 3 days in the RPMI medium as described above, in the presence (positive control) or absence (negative control) of stimulators [PHA (2.5 μg/mL) (Sigma, USA) or both PMA (10 ng/mL) (Sigma, USA) and ionomycin (500 ng/mL) (Calbiochem, USA)] and tested substances at 37° C. in 5% CO2 and 90% humidity. The cells were pulsed with 1 μCi of (^3H)thymidine (Amersham, USA) per well during the last 18 h of the cultures and were harvested on a 96-well filter (Packard Bioscience, USA) with a multiple cell harvester (Packard, USA). The incorporation of (^3H)thymidine in activated cells was measured by TopCount NXT (Packard, USA).
Inhibition of cell proliferation (as a percentage) was calculated using the following formula: % inhibition=(1−(^3H)thymidine incorporation expressed in counts per minute (cpm) in sample/(3H)thymidine incorporation expressed in cpm in positive control)×100 where “positive control” refers to stimulated samples not treated with substances.

human IL-6 = test: Inhibition of IL-6 production by stimulated human peripheral blood leukocytes in vitro (ELISA); conditions: Homo sapiens, Leukocyte, PBL, read-out: Percentage of inhibition of IL-6 production; for inhibition at 10 µM: compound 10 μM; for inhibition at 50 µM: compound 50 μM
Method in brief: as §1

human IL-1β = test: Inhibition of IL-1β production by stimulated human peripheral blood leukocytes in vitro (ELISA); conditions: Homo sapiens, Leukocyte, PBL, read-out: Percentage of inhibition of IL-1β production; for inhibition at 10 µM: compound 10 μM; for inhibition at 50 µM: compound 50 μM
Method in brief: as §1

human IL-8 = test: Inhibition of IL-8 production by stimulated human peripheral blood leukocytes in vitro (ELISA); conditions: Homo sapiens, Leukocyte, PBL, read-out: Percentage of inhibition of IL-8 production; for inhibition at 10 µM: compound 10 μM; for inhibition at 50 µM: compound 50 μM
Method in brief: as §1

THP-1 = conditions: human, 24 h
Description: (§2) Anti-inflammatory activity of compounds, i.e. observed inhibition of cytokine production and inhibition of proliferation in vitro, is not a consequence of their cytotoxicity.
(§3) Measurement of the succinate dehydrogenase activity in living cells was performed in order to assess the cytotoxicity of compounds of the invention. Cells were cultured for 24 hours in RPMI medium as described above at 37° C., in the presence of the tested compounds at concentrations of 50 μM and 12.5 μM. Afterwards, MTT [3-(4,5-dimethylthiazole-2-yl)-2,5-diphenyl tetrazolium bromide] (Promega, USA) as detection reagent was added and incubated for 0.5-2 hours. The amount of produced MTT-Formazan was determined spectrophotometrically at 490 nm (Mosmann, J. Immunol. Methods, 1983, 65: 55-63).
(§4) Percentage of viable cells was calculated using the following formula: % viable cells=[…]

Hep G2 = conditions: human, 24 h
Description: as §2, §3, §4

A549 = conditions: human, 24 h
Description: as §2, §3, §4

| Compound | inhibition at 10 µM (human TNF-α; LPS stimulation) | inhibition at 50 µM (human TNF-α; LPS stimulation) | inhibition at 10 µM (human TNF-α; PMA stimulation) | inhibition at 50 µM (human TNF-α; PMA stimulation) | inhibition at 10 µM (human TNF-α; zymosan stimulation) | inhibition at 50 µM (human TNF-α; zymosan stimulation) | inhibition at 10 µM ([1]; PHA stimulation) | inhibition at 50 µM ([1]; PHA stimulation) | inhibition at 10 µM ([1]; PMA + ionomycin stimulation) | inhibition at 50 µM ([1]; PMA + ionomycin stimulation) | inhibition at 10 µM (human IL-6; LPS stimulation) | inhibition at 50 µM (human IL-6; LPS stimulation) | inhibition at 10 µM (human IL-6; PMA stimulation) | inhibition at 50 µM (human IL-6; PMA stimulation) | inhibition at 10 µM (human IL-6; zymosan stimulation) | inhibition at 50 µM (human IL-6; zymosan stimulation) | inhibition at 10 µM (human IL-1β; LPS stimulation) | inhibition at 50 µM (human IL-1β; LPS stimulation) | inhibition at 10 µM (human IL-1β; PMA stimulation) | inhibition at 50 µM (human IL-1β; PMA stimulation) | further results |
| --- | --- | --- | --- | --- | --- | --- | --- | --- | --- | --- | --- | --- | --- | --- | --- | --- | --- | --- | --- | --- | --- |
| CC[C@H]1OC(=O)[C@H](C)[C@@H](OC(=O)CCN(CC)CC)[C@H](C)[C@@H](O[C@@H]2O[C@H](C)C[C@H](N(C)C)[C@H]2O)[C@](C)(OC)C[C@@H](C)C(=O)[C@H](C)[C@@H](O)[C@]1(C)O [Example 5, 3-O-(3-Diethylamino-propionyl)-3-O-decladinosyl-6-O-methyl-erythromycin A] | 3% | 92% | 29% | 100% | 17% | 100% | 99% | 100% | 90% | 100% | 38% | 100% | 78% | 100% | 51% | 100% | 75% | 80% | 91% | 100% | inhibition at 10 µM (human IL-1β; zymosan stimulation): 68%; inhibition at 50 µM (human IL-1β; zymosan stimulation): 100%; inhibition at 10 µM (human IL-8; LPS stimulation): 22%; inhibition at 50 µM (human IL-8; LPS stimulation): 95%; inhibition at 10 µM (human IL-8; PMA stimulation): 48%; inhibition at 50 µM (human IL-8; PMA stimulation): 83%; inhibition at 10 µM (human IL-8; zymosan stimulation): 48%; inhibition at 50 µM (human IL-8; zymosan stimulation): 100%; Percentage of viable cells after treatment (THP-1; 12.5 μM): 100%; Percentage of viable cells after treatment (THP-1; 50 μM): >80%; Percentage of viable cells after treatment (Hep G2; 12.5 μM): >86%; Percentage of viable cells after treatment (Hep G2; 50 μM): 100%; Percentage of viable cells after treatment (A549; 12.5 μM): 100%; Percentage of viable cells after treatment (A549; 50 μM): 100% |
| CC[C@H]1OC(=O)[C@H](C)[C@@H](O[C@H]2C[C@@](C)(OC)[C@@H](O)[C@H](C)O2)[C@H](C)[C@@H](O[C@@H]2O[C@H](C)C[C@H](N(C)C)[C@H]2O)[C@](C)(O)C[C@@H](C)CN(C)[C@H](C)[C@@H](O)[C@]1(C)O [azithromycin, reference compound] | 36% | 20% | 0% | 0% | 6% | 64% | 5% | 29% | 9% | 31% | 15% | 40% | 0% | 0% | 20% | 75% | 28% | 48% | 0% | 0% | inhibition at 10 µM (human IL-1β; zymosan stimulation): 20%; inhibition at 50 µM (human IL-1β; zymosan stimulation): 75%; inhibition at 10 µM (human IL-8; LPS stimulation): 0%; inhibition at 50 µM (human IL-8; LPS stimulation): 0%; inhibition at 10 µM (human IL-8; PMA stimulation): 0%; inhibition at 50 µM (human IL-8; PMA stimulation): 0%; inhibition at 10 µM (human IL-8; zymosan stimulation): 0%; inhibition at 50 µM (human IL-8; zymosan stimulation): 0%; Percentage of viable cells after treatment (THP-1; 12.5 μM): 100%; Percentage of viable cells after treatment (THP-1; 50 μM): >95%; Percentage of viable cells after treatment (Hep G2; 12.5 μM): 100%; Percentage of viable cells after treatment (Hep G2; 50 μM): >95%; Percentage of viable cells after treatment (A549; 12.5 μM): 100%; Percentage of viable cells after treatment (A549; 50 μM): 100% |
| CC[C@H]1OC(=O)[C@H](C)[C@@H](O[C@H]2C[C@@](C)(OC)[C@@H](O)[C@H](C)O2)[C@H](C)[C@@H](O[C@@H]2O[C@H](C)C[C@H](N(C)C)[C@H]2O)[C@](C)(OC)C[C@@H](C)C(=O)[C@H](C)[C@@H](O)[C@]1(C)O [clarithromycin, reference compound] | 0% | 0% | 0% | 0% | 0% | 0% | 0% | 7% | 9% | 14% | 11% | 0% | 0% | 0% | 28% | 0% | 0% | 0% | 26% | 33% | inhibition at 10 µM (human IL-1β; zymosan stimulation): 36%; inhibition at 50 µM (human IL-1β; zymosan stimulation): 59%; inhibition at 10 µM (human IL-8; LPS stimulation): 23%; inhibition at 50 µM (human IL-8; LPS stimulation): 0%; inhibition at 10 µM (human IL-8; PMA stimulation): 33%; inhibition at 50 µM (human IL-8; PMA stimulation): 0%; inhibition at 10 µM (human IL-8; zymosan stimulation): 0%; inhibition at 50 µM (human IL-8; zymosan stimulation): 0%; Percentage of viable cells after treatment (THP-1; 12.5 μM): 100%; Percentage of viable cells after treatment (THP-1; 50 μM): >95%; Percentage of viable cells after treatment (Hep G2; 12.5 μM): 100%; Percentage of viable cells after treatment (Hep G2; 50 μM): 100%; Percentage of viable cells after treatment (A549; 12.5 μM): 100%; Percentage of viable cells after treatment (A549; 50 μM): 100% |
